From patent publication US8318504B2, “MRP2 efflux pathway prognostic method” (priority 2009, dated 2012)
Read-outs that look alike come from different tables or passages of the source.

What was measured:
[1] = tested on: Abcc2 and Abcc3; experiment: Biliary secretion study of CLF in wild type, Abcc2-/- and Abcc3-/- mice; format: in vivo; conditions: for cumulative biliary excretion of CLF / hepatic retention of CLF: 120 minutes after administration
Description: (§1) Mice received 100 μL of 1 mmol/L CLF by injection in the tail vein. Data represent means±SD. Plasma levels are expressed in nmol/L and levels in urine, liver and bile as percentage of administered dose. Significance was tested using two-sided Student's t-test: *P<0.05 for Abcc2^-/- vs wild type mice. Data represent means±SD. Abcc2^-/- mice (against a Friend virus B-type (FVB) background) were bred at the National Cancer Institute (Amsterdam, The Netherlands). Production and characterization of the Abcc2^-/- mice was as described by […] et al. [J Pharmacol Exp Ther 2006 July; 318(1):319-327]. Wild type and Abcc3^-/- mice (against an FVB background) were bred at the animal institute of the Academic Medical Center. Production and characterization of the Abcc3^-/- mice was as described by Zelcer et al. [J Hepatol 2006 April; 44(4):768-775]. For biliary secretion studies, the gall bladder was cannulated with PE10 polyethylene tubing and 100 μL (1 mmol/L) CLF was injected in the tail vein. Bile was collected in 10 minutes fractions; liver and blood were harvested at the end of the experiment. Homogenised livers were deproteinised by adding 2 volumes of MeOH, and bile and blood samples were diluted with 0.1% Triton-X-100. The amount CLF was quantitated by measurement of fluorescence as described above.

[2] = as above; format: in vivo; conditions: FVB, mouse, blood, intravenous, 100 μL of 1 mmol/L CLF, 120 minutes after administration, read-out: blood levels of CLF
Description: as §1

[3] = target: T1, NTCP (Homo sapiens, UniProt Q14973); experiment: Uptake of TC and CLF into CHO cells stably expressing NTCP; format: cell-based; conditions: 1 μmol/L CLF, 1 and 5 minutes, fluorescence analysis and quantitative determination
T1 construct: the coding region ligated into pcDNA5/FRT; expressed in transfected cells
T1 sequence (Q14973 1-349): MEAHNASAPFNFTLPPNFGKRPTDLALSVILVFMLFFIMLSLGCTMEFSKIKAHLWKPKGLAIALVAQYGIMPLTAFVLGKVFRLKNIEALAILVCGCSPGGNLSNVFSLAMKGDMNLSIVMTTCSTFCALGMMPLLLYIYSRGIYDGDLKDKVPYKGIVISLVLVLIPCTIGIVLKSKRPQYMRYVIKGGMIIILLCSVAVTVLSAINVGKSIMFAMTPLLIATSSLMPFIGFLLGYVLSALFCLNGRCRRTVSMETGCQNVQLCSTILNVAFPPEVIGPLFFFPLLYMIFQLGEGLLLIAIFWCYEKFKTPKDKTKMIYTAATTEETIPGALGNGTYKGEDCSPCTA
Description: cDNA for human NTCP [Hagenbuch et al., J Clin Invest 1994 March; 93(3): 1326-1331] was cut with EcoRV and HindI and the coding region ligated into pcDNA5/FRT (Invitrogen, Life-Technologies, Carlsbad, Calif.). CHO FlpIn cells (Invitrogen, Life-Technologies) were transfected with the resulting construct using Lipofectamine® 2000 (Invitrogen, Life-Technologies). Stably transfected cells were selected with 550 μg Hygromycin-B in HAM-F12 medium (Gibco, Invitrogen, Life-Technologies). Transfected cells were cloned with the limiting dilution method. […] To further characterize the cloned cells, immunofluorescence localization of NTCP using a polyclonal antibody against NTCP [Kullak-Ublick G et al., Gastroenterology 1997 October; 113(4):1295-1305] was performed as described by Huber R D et al. [Am J Physiol Cell Physiol 2007 February; 292(2):[…]-[…]]. CHO cells expressing OATP1B1, OATP1B3 and OATP2B1 were described previously [Treiber et al., DMD 35:1400-1407, 2007]. For all transport experiments, cells grown on 3 cm culture dishes were cultured for 24 hours in media supplemented with 5 mmol/L sodium-butyrate to increase expression levels of transfected transporters [Palermo D P et al., J Biotechnol 1991 June; 19(1):35-47]. • Transport experiments with uptake of radioactively labeled substrates: These experiments were performed as described by Huber R D et al. […] Uptake was performed in the same buffers as for the radioactive substrates above. For visualization of CLF uptake, cells were immediately inspected with a Leica-DM-IRBE-inverted-microcope (Leica-Microsystems, Wetzlar, Germany) equipped with a Hamamatsu-ORKA-ER-camera (Hamamatsu-Photonoics, Japan). To determine uptake of CLF, cells were solubilized by the addition of 2 ml 1% (w/v) Triton-X-100. After complete solubilization, 1.5 ml was used to measure fluorescence in a Perkin-Elmer LS-5 luminescence-spectrometer set at λexe 486 nm (slit 10 nm) and λem 520 nm (slit 5 nm). Protein was determined with the bicinchoninic acid method using a kit from Interchim (Montfuçon, France). […]

CC(CCC(=O)NC(CCCCNC(=S)Nc1ccc(-c2c3ccc(=O)cc-3oc3cc(O)ccc23)c(C(=O)O)c1)C(=O)O)C1CCC2C3C(O)CC4CC(O)CCC4(C)C3CC(O)C12C (centres unmarked) [CLF, cholyl lysyl fluorescein]
biliary output of CLF in Abcc3-/- mice in comparison with wild type mice ([1]; 100 μL 1 mmol/L CLF in the tail vein): not affected
CLF dose excreted into bile within 20 minutes ([1]; Abcc2-/- mice, 100 μL 1 mmol/L CLF in the tail vein): less than 2%
cumulative biliary excretion of CLF ([1]; Abcc2-/- mice): 32 % of the administered dose
hepatic retention of CLF ([1]; Abcc2-/- mice): 64 % of the administered dose
plasma and liver CLF contents in Abcc3-/- mice in comparison with wild type mice ([1]; after 2 hours): no differences
CLF dose excreted into bile within 20 minutes ([1]; wild type mice, 100 μL 1 mmol/L CLF in the tail vein): ~70%
cumulative biliary excretion of CLF ([1]; wild type mice): 85 % of the administered dose
hepatic retention of CLF ([1]; wt mice): 1 % of the administered dose
concentration at 120 min ([2]; Abcc2-/- mice): 1310 ± 749 nM
concentration at 120 min ([2]; wt mice): 83 ± 21 nM
sodium-dependent uptake of CLF mediated by NTCP [3]: no sodium-dependent uptake
